{
  "source": "patent US12012413B2",
  "about": "“Methods of treating painful diabetic peripheral neuropathy” (Tenacia Biotechnology (Hong Kong) Co., Limited, priority 2019, dated 2024)",
  "key": {"[1]": {"assay": "Solid form conversion / physical stability (XRPD)", "type": "physicochemical", "conditions": "for form conversion in suspension: isopropanol, ethyl acetate, or isopropyl acetate", "protocol": "X-ray powder diffraction (XRPD) analysis was carried out on a Stoe Stadi P with Mythen1K detector; Cu-Kα1 radiation; 40 kV and 40 mA tube power; curved Ge monochromator; 0.02° 2θ step size, 12 s step time, 1.5-50.5° 2θ scanning range; detector mode: step scan; 1° 2θ detector step. The sample (about 20 mg) was placed between two acetate foils and clamped in a Stoe transmission sample holder. The sample holder was rotated during the measurement.\nX-ray powder diffraction (XRPD) analysis was also carried out on a on a Bruker D8 Advance; Cu-Kα radiation; standard measurement conditions: Bragg-Brentano reflection geometry; 40 kV and 40 mA tube power; LynxEye detector; 0.02° 2θ step size, 37 s step time, 2.5-50.5° 2θ scanning range (about 10 min measurement time. The sample was spread on a silicon single crystal substrate without cavity and flattened to fit to the 0.1 mm depth of the sample holder.\nCrystalline, anhydrous Form C material of 3-hydroxy-2-(5-isobutyryl-1-oxo-2,5-diazaspiro[3.4]octan-2-yl)butanamide is not stable in comparison to anhydrous Form A or anhydrous Form B under ambient conditions of temperature and humidity. […] In turn, anhydrous Form A and anhydrous Form B each convert to monohydrate Form MH under the conditions described above."}, "[2]": {"assay": "Solubility of anhydrous crystalline forms in water and isopropyl acetate at room temperature", "type": "physicochemical"}, "[3]": {"test_system": "neuropathic pain associated with diabetic peripheral neuropathy", "assay": "Randomized, double-blind, placebo-controlled multiple-dose study in subjects with neuropathic pain associated with diabetic peripheral neuropathy", "type": "in vivo, human", "protocol": "A randomized, double-blind, parallel-group, placebo-controlled, multiple-dose study was conducted to assess the efficacy and safety of NYX-2925 in subjects with neuropathic pain associated with diabetic peripheral neuropathy. The study was to evaluate the efficacy of multiple dose levels of NYX-2925 versus placebo in treating the neuropathic pain associated with diabetic peripheral neuropathy. The study was also to assess the effects of multiple dose levels of NYX-2925 versus placebo on pain characteristics, sleep interference, health status, psychological state, and global improvement, and to assess the safety and tolerability of multiple dose levels of NYX-2925. The study was a 6- to 9-week study, including a 1- to 4-week Screening Period, followed by a 4-week double-blind, randomized, placebo-controlled Treatment Period, and a 1-week Follow-Up Period. Subjects with Type 2 diabetes who had been on stable antidiabetic medication for at least 1 month (or had stable glycemic control with diet and exercise alone) and who had been suffering from painful diabetic peripheral neuropathy in the lower extremities for at least 6 months but not more than 10 years were screened for diabetic peripheral neuropathy using the Michigan Neuropathy Screening Instrument and the Masquerading Disorders Tool. […] Subjects were dispensed acetaminophen to be used as rescue medication, and were instructed to take no more than 2 g/daily (one to two 500-mg caplets every 4 to 6 hours as needed) for DPN pain. Beginning immediately after Visit 1, pain intensity and rescue medication use were recorded in the study-issued handheld device daily at bedtime. Subjects entered their average pain intensity, worst pain intensity, pain on walking, and whether rescue medication was used during the past 24 hours. Pain intensity was recorded using an 11-point NRS, with 0 being no pain and 10 being the worst pain imaginable. Every morning upon awakening, subjects completed the Daily Sleep Interference Scale (DSIS) via their study-issued handheld device. Eligible subjects were randomized to receive either NYX-2925 10 mg daily, NYX-2925 50 mg daily, NYX-2925 200 mg daily, or placebo for 4 weeks in a 1:1:1:1 allocation. Investigators and subjects were masked to the randomization allocation. Subjects were dispensed a 2-week supply of investigational product and instructed to take 2 capsules by mouth once daily. Subjects were also re-dispensed acetaminophen to use as rescue medication for DPN pain; instructions not to exceed 2 g/day were reinforced. The appropriate use of rescue medication was assessed by inventory of the returned caplets, as well as by subject interview. Subjects were instructed to continue entering their average pain intensity, worst pain intensity, pain upon walking, and whether they used rescue medication over the past 24 hours into their study-issued handheld devices every night. Every morning upon awakening, subjects completed the DSIS via their study-issued handheld device. Pain diary compliance was reviewed at each study visit by the study staff, and reporting instructions was reinforced. Quantitative sensory testing was done using the Bedside Sensory Testing Kit. The following scales were completed at the Baseline Visit: Brief Pain Inventory for Diabetic Peripheral Neuropathy (BPI-DPN), the Short-Form McGill Pain Questionnaire version 2 (SF-MPQ-2), the Norfolk Quality of Life Questionnaire-Diabetic Neuropathy (QOL-DN), the HADS, the Insomnia Severity Index, and the S-STS. Subjects returned to the clinic at the end of Week 2 for assessment of compliance with study medication, use of rescue medication, and were dispensed the final 2-week supply of investigational product and rescue medication for DPN pain. Pain diary compliance was reviewed by the study staff, and reporting instructions were reinforced. Adverse events were assessed by asking the subjects a non-leading question. Use of concomitant medications was documented. […]"}, "[4]": {"conditions": "10, 50 or 200 mg by mouth once daily for 4 weeks"}, "[5]": {"conditions": "advanced DPN (at least 4 years)"}, "[6]": {"conditions": "patients with at least 4 years of DPN duration"}},
  "note": "Read-outs that look alike come from different tables or passages of the source.",
  "data": [
    {"smiles": "CC(C)C(=O)N1CCCC12CN(C(C(N)=O)C(C)O)C2=O", "note": "(centres unmarked) [3-hydroxy-2-(5-isobutyryl-1-oxo-2,5-diazaspiro[3.4]octan-2-yl)butanamide]", "values": [
      {"measurement": "physical stability on storage (XRPD)", "setting": "[1]; about six weeks in a sealed vial at −20° C.", "value": "did not crystallize"}
    ]},
    {"smiles": "CC(C)C(=O)N1CCCC12CN(C(C(N)=O)C(C)O)C2=O", "note": "(centres unmarked) [Form B, 3-hydroxy-2-(5-isobutyryl-1-oxo-2,5-diazaspiro[3.4]octan-2-yl)butanamide]", "values": [
      {"measurement": "solubility", "setting": "[2]; isopropyl acetate, organic solvent or mixture, after 10 minutes, 1 hour, and 6 hours at room temperature, read-out: solubility in isopropyl acetate", "value": "~9", "unit": "mg/mL"},
      {"measurement": "solubility at 10 min", "setting": "[2]; water, after 10 minutes at room temperature", "value": "~54", "unit": "mg/mL"},
      {"measurement": "solubility at 1 h", "setting": "[2]; water, after 1 hour at room temperature", "value": "~54", "unit": "mg/mL"},
      {"measurement": "solubility at 6 h", "setting": "[2]; water, after 6 hours at room temperature", "value": "~48", "unit": "mg/mL"},
      {"measurement": "conversion to the monohydrate Form MH in the solid state", "setting": "[1]; ambient temperature, atmosphere of greater than or equal to 50% relative humidity", "value": "readily converts to the monohydrate Form MH"}
    ]},
    {"smiles": "CC(C)C(=O)N1CCC[C@]12CN([C@H](C(N)=O)[C@@H](C)O)C2=O", "note": "[NYX-2925, (2S,3R)-3-hydroxy-2-((R)-5-isobutyryl-1-oxo-2,5-diazaspiro[3.4]octan-2-yl)butanamide]", "values": [
      {"measurement": "change in daily sleep interference score from baseline", "setting": "[3]; 50 mg dose, advanced DPN (at least 4 years), at least at the 2, 3 and 4 week points", "value": "Statistical significance"},
      {"measurement": "change in average pain (NRS) from baseline", "setting": "[3]; 50 mg dose, advanced DPN (at least 4 years), at least at the 3 and 4 week points", "value": "Statistical significance"},
      {"measurement": "change from placebo in average daily pain, baseline to week 4, by duration of painful DPN", "setting": "[3]; 50 mg dose, groups ≥1 to ≥5 yrs", "value": "most significant at ≥4 years"},
      {"measurement": "Week 4 change vs. baseline in average daily pain (on 10-point NRS)", "setting": "[3]; 50 mg once daily, patients with advanced DPN", "value": 1.93, "unit": "points"},
      {"measurement": "Week 4 change vs. placebo in average daily pain (on 10-point NRS)", "setting": "[3]; 50 mg once daily, patients with advanced DPN, p=0.004", "value": 1.21, "unit": "points"},
      {"measurement": "separation from placebo by dose", "setting": "[3]; 200 mg and 50 mg doses", "value": "meaningful separation from placebo"},
      {"measurement": "shape of dose response", "setting": "[3]; 10, 50 and 200 mg doses", "value": "inverted-U-shaped dose response"},
      {"measurement": "overall AE profile", "setting": "[3]; [4]", "value": "comparable to placebo"},
      {"measurement": "safety and tolerability", "setting": "[3]; [4]", "value": "safe and well tolerated"},
      {"measurement": "serious adverse events (SAEs)", "setting": "[3]; [4]", "value": "no SAEs"},
      {"measurement": "change in pain on walking (NRS) score from baseline", "setting": "[3]; [5]", "value": "improvement"},
      {"measurement": "change in worst pain from baseline", "setting": "[3]; [5]", "value": "improvement"},
      {"measurement": "most active dose level among the three doses tested (10, 50, 200 mg)", "setting": "[3]; once daily for 4 weeks", "value": 50, "unit": "mg"},
      {"measurement": "separation from placebo on the primary endpoint (change in average daily pain)", "setting": "[3]; patients not on a concomitant analgesic (n=148), 10, 50 or 200 mg by mouth once daily for 4 weeks", "value": "numeric, but not statistically significant, separation from placebo"},
      {"measurement": "pain alleviation", "setting": "[3]; patients with DPN, after four weeks", "value": "meaningful pain alleviation"},
      {"measurement": "effects on change in average daily pain vs. placebo", "setting": "[3]; patients with advanced DPN (DPN for ≥4 years, n=127; post-hoc analysis)", "value": "significant effects"},
      {"measurement": "insomnia severity (secondary endpoint)", "setting": "[3]; [6]", "value": "Improvement"},
      {"measurement": "pain interference (secondary endpoint)", "setting": "[3]; [6]", "value": "Improvement"},
      {"measurement": "pain severity (secondary endpoint)", "setting": "[3]; [6]", "value": "Improvement"},
      {"measurement": "patient global impression of change (PGI-C) (secondary endpoint)", "setting": "[3]; [6]", "value": "Improvement"},
      {"measurement": "quality of life (secondary endpoint)", "setting": "[3]; [6]", "value": "Improvement"},
      {"measurement": "total pain score (secondary endpoint)", "setting": "[3]; [6]", "value": "Improvement"},
      {"measurement": "effect of concomitant analgesic use on treatment benefit", "setting": "[3]; patients with or without a concomitant analgesic", "value": "does not appear to affect treatment benefit"},
      {"measurement": "MMRM change in daily sleep interference", "setting": "[3]; subjects not using analgesic (n=148), 50 mg dose, at the 3 and 4 week points", "value": "significance"},
      {"measurement": "separation from placebo on the primary endpoint (change in average daily pain)", "setting": "[3]; total patient population (n=300), 10, 50 or 200 mg by mouth once daily for 4 weeks", "value": "numeric, but not statistically significant, separation from placebo"}
    ]},
    {"smiles": "CC(C)C(=O)N1CCCC12CN(C(C(N)=O)C(C)O)C2=O", "note": "(centres unmarked) [Form A, 3-hydroxy-2-(5-isobutyryl-1-oxo-2,5-diazaspiro[3.4]octan-2-yl)butanamide]", "values": [
      {"measurement": "solubility in isopropyl acetate", "setting": "[2]; after 10 minutes, 1 hour, and 6 hours at room temperature", "value": "about 8 mg/mL"},
      {"measurement": "solubility", "setting": "[2]; isopropyl acetate, 22 °C, organic solvent or mixture, room temperature (about 22° C.), read-out: solubility in isopropyl acetate", "value": "~8", "unit": "mg/mL"},
      {"measurement": "solubility", "setting": "[2]; water, 22 °C, water, room temperature (about 22° C.), read-out: solubility in water", "value": "54 to 55", "unit": "mg/mL"},
      {"measurement": "time to convert to the monohydrate Form MH in the solid phase", "setting": "[1]; ambient temperature, atmosphere of greater than 5% relative humidity", "value": "≤ 3", "unit": "days"}
    ]},
    {"smiles": "CC(C)C(=O)N1CCCC12CN(C(C(N)=O)C(C)O)C2=O", "note": "(centres unmarked) [Form C, 3-hydroxy-2-(5-isobutyryl-1-oxo-2,5-diazaspiro[3.4]octan-2-yl)butanamide]", "values": [
      {"measurement": "stability in comparison to anhydrous Form A or anhydrous Form B", "setting": "[1]; ambient conditions of temperature and humidity", "value": "not stable"},
      {"measurement": "form conversion in suspension", "setting": "[1]; temperatures greater than or equal to 75° C.", "value": "converts to anhydrous Form B"},
      {"measurement": "form conversion in suspension", "setting": "[1]; temperatures less than or equal to 50° C.", "value": "converts to anhydrous Form A"}
    ]}
  ]
}
